Values joined by “and” are separate entries in the source; they are usually repeats but may differ in a detail not shown here. Identical values can stand only once.
Assays:
[1] = test system: neonatal mouse model of oxygen-induced retinopathy; assay: Neonatal mouse model of oxygen-induced retinopathy, intra-peritoneal injection, pre-retinal nuclei count and retinal flat mounts; format: in vivo; conditions: for reduction in preretinal nuclei / preretinal vascularization: 5 g/kg/d intra-peritoneal, twice daily, P12-P17, versus vehicle
Procedure: (§1) In the neonatal mouse model of oxygen-induced retinopathy, 7-day old mice were placed with their nursing dams in a 75% oxygen atmosphere for 5 days. (Smith et al., Invest Ophthalmol Vis Sci., 35(1):101-111 (1994). Mouse pups received twice daily intra-peritoneal injections (50 μl) starting on postnatal day 12 (P12) and continuing through postnatal day 17 (P17). In one experiment, injections included vehicle (0.9% sodium chloride) and the test compounds Ala-gly (5 g/kg/d), Arg-gln dipeptide (5 g/kg/d) and in a second experiment, different doses of Arg-gln (1.0, 2.5 and 5 g/kg/d) were tested.
(§2) After the fifth day following return to normoxia (P17), the animals were euthanized by injection of a lethal dose of a combination of ketamine (70 mg/kg body weight) and xylazine (15 mg/kg body weight) followed by cervical dislocation. The eyes were removed and fixed in 4% paraformaldehyde, embedded in paraffin, and sectioned as previously described. (Smith et al., Id.) Pre-retinal nuclei were counted by masked observers. Efficacy of treatment was calculated as the percent average nuclei per section in the eyes of Arg-Gln treated animals versus control animals.
All data represent the mean±SEM. ANOVA was used to evaluate differences among groups, and individual contrasts were done using Student t-tests with Bonferroni correction was used to determine the significance between groups.

[2] = test system: vascular endothelial cell growth factor (VEGF) in human retinal pigment epithelial cells (hRPE); assay: VEGF secretion by human retinal pigment epithelial cells (VEGF ELISA of culture medium); format: cell-based
Procedure: Human eyes were obtained from the National Disease Resource Interchange within 36 h of death. hRPE cells were prepared and maintained as described by Grant et al., in Curr. Eye Res., 9(4):323-335 (1990), and Enzmann et al., in Transpl Immunol, March 7(1): 9-14 (1999). For cell culture experiments, hRPE from passages 3-5 were used. All tissue culture media was purchased from Mediatech, Inc., Herndon, Fla. hRPE cultures were placed in glutamine-free medium for 24 hrs and then were exposed either to 0, 0.5, 1, 2.5 or 5 mg/ml of Arg-gln dipeptide for 48 hrs. At the end of 48 hrs, VEGF content of the culture medium containing the hRPE cells was measured using the Quantikine® Human VEGF Immunoassay ELISA kit (R&D Systems, Minneapolis, Minn.).

VEGF mRNA = VEGF mRNA in retina of oxygen-induced retinopathy mice (real-time RT-PCR); format: in vivo, mouse; conditions: 5 g/kg/d parenteral, day 5 after removal from high oxygen, P=0.007
Procedure: as §1
For total RNA isolations from retina the animals were sacrificed and the eyes removed. The retina were then dissected away from the eye and stored in RNAlater® buffer (Ambion, Austin, Tex.) at 4° C. for subsequent isolation of protein or RNA.
VEGF protein concentration was determined from isolated mouse retinas using the Quantikine® Human VEGF Immunoassay ELISA kit (R&D Systems, Minneapolis, Minn.). Pups were treated with the 5 g/kg/d dose of dipeptide and at varying time points after the pups were removed from oxygen on day 12. Eyes were enucleated at 0.5, 1 and 5 days post removal from high oxygen (n=14 eyes for each data point). Vehicle treated animals were compared to dipeptide-treated animals. […]

[3] = test system: neonatal mouse model of oxygen-induced retinopathy; assay: Neonatal mouse model of oxygen-induced retinopathy, gavage (enteral) administration, pre-retinal nuclei count; format: in vivo; conditions: gavage, 1, 2.5 and 5 gm/kg·day, P12-P17, versus vehicle; dose/response, highest effectiveness at 5 gm/kg·day
Text: In the neonatal mouse model of oxygen-induced retinopathy, 7-day old mice were placed with their nursing dams in a 75% oxygen atmosphere for 5 days. Mouse pups received twice a day gavage feedings of dipeptide or control solution (50 microliter) starting on postnatal day 12 (P12) and continuing through postnatal day 17 (P17). Gavage feeds included vehicle (0.9% sodium chloride) and the test compounds and different doses of Arg-Gln (1.0, 2.5 and 5 gm/kg/d). The daily dosage of the dipeptide was divided evenly between the two daily gavage feedings.
as §2, with “sectioned.” for “sectioned as previously described. (Smith et al., Id.)”

Row | Substance | reduction in preretinal nuclei / preretinal vascularization [1] | effect on preretinal nuclei, all doses ([1]; 1.0, 2.5 and 5.0 g/kg/d intra-peritoneal, five days of treatment, P<0.00001) | effect on preretinal nuclei at the lowest dose tested (FIG. 2) ([1]; 1 gm/kg·day intra-peritoneal, P12-P17) | reduction in preretinal nuclei / preretinal vascularization ([1]; listed as Arg-gln dipeptide) [%] | retinal flat mounts (fluorescently labeled dextran): neovascular tufts and vascular leakage ([1]; Arg-gln treated pups compared to control dipeptide Ala-gly treated pups) | effect on VEGF secretion as a function of the level of Arg-gln (FIG. 1) ([2]; 0-5 mg/ml, 48 hrs) | decrease in soluble VEGF expression into the culture medium ([2]; 1.5 mM Arg-gln, 48 hrs exposure after 24 hrs in glutamine-free medium, P=0.002) [%] | VEGF mRNA in retina versus vehicle-treated pups (VEGF mRNA) | VEGF mRNA in retina versus vehicle-treated pups (VEGF mRNA; listed as Arg-gln dipeptide) | average nuclei per section in the eyes (FIG. 4) [3]
1 | Ala-gly [reference compound] | 2±5% |  |  |  |  |  |  |  |  | 
2 | arginyl-glutamine dipeptide [Arg-gln] | ~80% and 82±7% | significant reduction | significant reduction | 80 | reduced neovascular tufts and vascular leakage | statistically significant dose-dependent decrease | 52.3±6.2 | significant reduction | much lower | decreased at all levels of administration
